Source: patent publication US20240368163A1, “COMPOUNDS AND METHODS FOR MODULATING SPLICING” (REMIX THERAPEUTICS INC., priority 2021, published 2024)

Experiments:
Assay type in all cases: cell-based, human
MYB [1] = assay: HiBiT protein abundance assay, MYB; settings: Homo sapiens, K562, 24 h, Table 13A, modified K562 cells
In short: (§1)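 HiBiT-tagged endogenous targets in K562 cells treated 24 h at 37° C. with 10-point 3-fold dilutions (top 10 μM, DMSO ≤0.25%). Luminescence read after lytic LgBiT detection; response normalised to unmodified-cell and DMSO controls, IC50 interpolated at 50% from four-parameter logistic fit.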

HTT [2] = assay: HiBiT protein abundance assay, HTT; settings: Homo sapiens, K562, 24 h, Table 13A, modified K562 cells
In short: as §1

HTT [3] = assay: Splicing RT-qPCR assay, HTT mRNA canonical junction (CJ) and alternative junction (AJ); settings: Homo sapiens; for AC50: increase in AJ mRNA
In short: (§2)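 Splice switching is measured in A673 or K562 cells after 24 h compound exposure (maximum 10 uM, 3-fold steps). Canonical and alternative junction mRNA levels are quantified by RT-qPCR relative to housekeeper and DMSO.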

MYB [4] = assay: Splicing RT-qPCR assay, MYB mRNA canonical junction (CJ) and alternative junction (AJ); settings: Homo sapiens; for AC50: increase in AJ mRNA
In short: as §2

SMN2 = assay: Splicing RT-qPCR panel, SMN2 canonical junction (CJ) mRNA; settings: Homo sapiens, RT-qPCR panel, canonical junction mRNA; compound concentration having 50% response in CJ decrease; read-out: SMN2 IC50 (decrease in CJ mRNA levels)
In short: as §2

Target C [5] = assay: Splicing RT-qPCR panel, Target C canonical junction (CJ) mRNA; settings: Homo sapiens, RT-qPCR panel, canonical junction mRNA; compound concentration having 50% response in CJ decrease; read-out: Target C IC50 (decrease in CJ mRNA levels)
In short: as §2

Target C [6] = assay: HiBiT protein abundance assay, Target C; settings: Homo sapiens, K562, 24 h, Table 13A, modified K562 cells
In short: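 HiBiT knock-in K562-derived cells seeded at 10000/well and treated with 10-point 3-fold dilutions (top final 10 μM, ≤0.25% DMSO) for 24 h at 37 °C. Lytic HiBiT luminescence normalised to unmodified-cell and DMSO controls; IC50 from 4-parameter fit at 50% abundance.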

[7] = 24 h, decrease in CJ mRNA, A673 or K562 cells, 24 hours treatment, RT-qPCR, read-out: HTT CJ IC50
[8] = 24 h, A673 or K562 cells, 24 hours treatment, RT-qPCR
[9] = RT-qPCR panel, canonical junction mRNA, compound concentration having 50% response in CJ decrease, read-out: HTT IC50 (decrease in CJ mRNA levels)
[10] = 24 h, decrease in CJ mRNA, A673 or K562 cells, 24 hours treatment, RT-qPCR, read-out: MYB CJ IC50
[11] = RT-qPCR panel, canonical junction mRNA, compound concentration having 50% response in CJ decrease, read-out: MYB IC50 (decrease in CJ mRNA levels)

| Structure (SMILES) | IC50 (MYB [1]) | IC50 (HTT [2]) | IC50 (HTT [3]; [7]) | AC50 (HTT [3]; [8]) | IC50 (HTT [3]; [9]) | IC50 (MYB [4]; [10]) | AC50 (MYB [4]; [8]) | IC50 (MYB [4]; [11]) | IC50 (SMN2) | IC50 (Target C [5]) | IC50 (Target C [6]) |
| --- | --- | --- | --- | --- | --- | --- | --- | --- | --- | --- | --- |
| c1nc2c(-c3cn[nH]c3)ccc(-c3ccc(C4CCNCC4)nn3)c2s1 [Compound 206] | 1000 to 10000 nM | 1000 to 10000 nM | 1000 to 10000 nM | > 10000 nM | 1000 to 10000 nM | 1000 to 10000 nM | 100 to 1000 nM | 1000 to 10000 nM | < 100 nM | > 10000 nM | > 10000 nM |
| CN(c1ccc(-c2ccc(-c3cnn(C)c(=O)c3)c3scnc23)nn1)C1CC(C)(C)NC(C)(C)C1 [Compound 211] | 100 to 1000 nM | 100 to 1000 nM | 100 to 1000 nM | 100 to 1000 nM | 100 to 1000 nM | 100 to 1000 nM | 100 to 1000 nM | 100 to 1000 nM | 100 to 1000 nM | 100 to 1000 nM | 100 to 1000 nM |
| c1nc2c(-c3cn[nH]c3)ccc(-c3ccc(NC4CCNCC4)nn3)c2s1 [Compound 214] | 1000 to 10000 nM | 1000 to 10000 nM | > 10000 nM | 1000 to 10000 nM | > 10000 nM | 1000 to 10000 nM | > 10000 nM | 1000 to 10000 nM | 100 to 1000 nM | > 10000 nM | > 10000 nM |
| c1n[nH]cc1-c1ccc(-c2ccc(N3CC4(CCCNC4)C3)nn2)c2[nH]ncc12 [Compound 218] | > 10000 nM | > 10000 nM | > 10000 nM | > 10000 nM | > 10000 nM | > 10000 nM | > 10000 nM | > 10000 nM | > 10000 nM | > 10000 nM | > 10000 nM |
| c1nc2c(-c3cn[nH]c3)ccc(-c3ccc(O[C@@H]4C[C@H]5CCC[C@@H](C4)N5)nn3)c2[nH]1 [Compound 219] | 100 to 1000 nM | < 100 nM | 100 to 1000 nM | 100 to 1000 nM | 100 to 1000 nM | 100 to 1000 nM | 100 to 1000 nM | 100 to 1000 nM | < 100 nM | 100 to 1000 nM | 100 to 1000 nM |
| CC1(C)CC(Oc2ccc(-c3ccc(-c4cn[nH]c4)c4cn[nH]c34)nn2)CCN1 (stereo not drawn) [Compound 220] | 1000 to 10000 nM | 1000 to 10000 nM | 1000 to 10000 nM | > 10000 nM | 1000 to 10000 nM | 1000 to 10000 nM | > 10000 nM | 1000 to 10000 nM | 100 to 1000 nM | > 10000 nM | > 10000 nM |
| c1n[nH]cc1-c1ccc(-c2ccc(S[C@@H]3C[C@H]4CC[C@@H](C3)N4)nn2)c2[nH]ncc12 [Compound 221] | 1000 to 10000 nM | 1000 to 10000 nM | > 10000 nM | > 10000 nM | > 10000 nM | > 10000 nM | > 10000 nM | > 10000 nM | > 10000 nM | > 10000 nM | 1000 to 10000 nM |
| CN(c1ccc(-c2ccc(-c3cn[nH]c3)c3ncsc23)nn1)C1CCNCC1 [Compound 222] | 1000 to 10000 nM | 100 to 1000 nM | 1000 to 10000 nM | 1000 to 10000 nM | 1000 to 10000 nM | 1000 to 10000 nM | 1000 to 10000 nM | 1000 to 10000 nM | 100 to 1000 nM | 1000 to 10000 nM | 1000 to 10000 nM |
| [2H]C([2H])([2H])N(c1ccc(-c2ccc(-c3cn[nH]c3)c3ncsc23)nn1)C1CCNCC1 [Compound 223] | 1000 to 10000 nM | 1000 to 10000 nM | 1000 to 10000 nM | 1000 to 10000 nM | 1000 to 10000 nM | 1000 to 10000 nM | > 10000 nM | 1000 to 10000 nM | 100 to 1000 nM | 1000 to 10000 nM | 1000 to 10000 nM |
